Ends that are not written are not given here.
Columns and labels:
[1] = tested on: platelet aggregation in platelet-rich plasma; assay: Platelet aggregometry assay (PAP-4) in platelet-rich plasma; type: cell-based; details: for Platelet aggregation Slope, ADP / Platelet aggregation Extent, ADP: 2 μM ADP; for Platelet aggregation Slope, ADP: 0 mM: 47; for Platelet aggregation Extent, ADP / Platelet aggregation Extent, Epinephrine: 0 mM: 83%; for Platelet aggregation Slope, Epinephrine / Platelet aggregation Extent, Epinephrine: 10 μg/ml epinephrine; for Platelet aggregation Slope, Epinephrine: 0 mM: 24; for Platelet aggregation Slope, Arachidonic Acid / Platelet aggregation Extent, Arachidonic Acid: 0.5 mg/ml arachidonic acid; for Platelet aggregation Slope, Arachidonic Acid: 0 mM: 32; for Platelet aggregation Extent, Arachidonic Acid: 0 mM: 82%; for Platelet aggregation Extent, Thrombin / Platelet aggregation Slope, Thrombin: 0.2 units/ml thrombin; for Platelet aggregation Extent, Thrombin: 0 mM: 97%; for Platelet aggregation Slope, Thrombin: 0 mM: 113
Method: Reptilase Time Assays. The reptilase time may be used as a control assay to examine the effects of a γ′ peptide. This assay is insensitive to thrombin inhibitors, since reptilase is used to clot fibrinogen rather than thrombin. An LA STA instrument (Diagnostica Stago) may be used to quantitate the effect of the γ′ peptide on the RVV, using the manufacturer's protocol. Briefly, 0-1 mM γ′ peptide or scrambled peptide or 0-10 units/ml unfractionated heparin may be added to 1 ml of normal reference plasma (DVVtroll) and loaded into the LA STA. The LA STA may be used to add Reptilase ST reagent (American Diagnostica) to initiate clotting, and clot formation monitored spectrophotometrically for 65 seconds. […] Platelet Aggregometzy Assays. This assay may be used to test the effects of a γ′ peptide on platelet aggregation in platelet-rich plasma. The activity of a γ′ peptide may be assayed in the presence or absence of epinephrine, ADP, collagen, ristocetin, arachidonic acid, and thrombin. A PAP-4 platelet aggregometer (Bio/Data) was used to quantitate the effect of the γ′ peptide on platelet aggregation, using the manufacturer's protocol. […] Blood was centrifuged for 10 minutes at 1,000×g, to isolate the supernatant of platelet-rich plasma. All experiments were performed within 2 hours of the blood draw. 0-1 mM γ′ peptide or scrambled peptide or 0-10 units/ml unfractionated heparin was added to 450 μl of platelet-rich plasma and loaded into siliconized cuvettes. 50 μl of agonist was added and the absorbance monitored for 6 minutes. The agonists used were 10 μg/ml epinephrine (American Reagent Laboratories), 2 μM ADP (Sigma), 0.5 mg/ml arachidonic acid (Bio/Data), or 0.2 units/ml thrombin. The presence or absence of a bi-phasic response may be determined, which is of particular significance in the presence of epinephrine, ADP, and ristocetin. The length of the lag phase may be determined, which is especially relevant in the presence of collagen. PFA-100 Assays. The effect of the γ′ peptide on platelet function may also be assessed using a Platelet Function Analyzer (PFA-100™, Dade Behring). The PFA-100 instrument measures the closure time of a capillary tube containing whole blood. This assay may be used to advantage to examine the effect of γ′ peptide on platelet function in whole blood in the presence of either of the platelet agonists epinephrine or ADP. Briefly, 0-1 mM γ′ peptide or scrambled peptide or 0-10 units/ml unfractionated heparin may be added to 800 μl of normal reference whole blood from an established control group and loaded into the PFA-100 to measure the closure time. Platelet function may be tested using both a collagen/epinephrine cartridge and a collagen/ADP cartridge
Platelet aggregation assays were performed as described hereinabove. A PAP-4 platelet aggregometer (Bio/Data) was used to quantitate the effect of the γ′ peptide on platelet aggregation, using the manufacturer's protocol.
Blood was centrifuged for 10 minutes at 1,000×g, and the supernatant of platelet-rich plasma was separated. 0-1 mM γ′ peptide was added to 450 μl of platelet-rich plasma and loaded into siliconized cuvettes. 50 μl of agonist was added, and the absorbance was monitored for 6 minutes. The agonists used were 2 μM ADP (Sigma), 0.5 mg/ml arachidonic acid (Bio/Data), 10 μg/ml epinephrine (American Reagent Laboratories), or 0.2 units/ml thrombin.

[2] = tested on: normal human reference plasma; assay: Activated partial thromboplastin time (aPTT) assay in human plasma; type: biochemical; details: 1 mM peptide; reference blood plasma; without peptide 29.0±0.1 seconds
Method: Activated Partial Thromboplastin Time (aPTT) Assay. This anti-coagulation assay was chosen for testing the γ′ peptides due to its sensitivity to heparin-like compounds, its ease of use, and the ability to automate the procedure. An MLA 1600 instrument (Organon Teknika) was used to quantitate the effect of the γ′ peptides on the aPTT, using the manufacturer's protocol. Briefly, 0-1 mM γ′ peptides or 0-10 units/ml unfractionated heparin was added to 50 μl of normal reference plasma (Ortho) and manually loaded into the MLA 1600. The MLA 1600 added SynthASil aPTT reagent (Ortho) to initiate clotting, and clot formation was monitored spectrophotometrically for 106 seconds. […] Prothrombin Time/International Normalized Ratio Assay. This clotting assay is less sensitive to heparin than the aPTT, and may be used to determine if a γ′ peptide is capable of prolonging the prothrombin time (PT) to the same extent as the 3 aPTT. One-stage PT assays may be performed using an MLA 1600 instrument according to the manufacturer's protocol. Briefly, 0-1 mM γ′ peptide or scrambled peptide or 0-10 units/ml unfractionated heparin may be added to 50 μl of normal reference plasma (Ortho) and manually loaded into the MLA 1600. The MLA 1600 may be used to add recombinant thromboplastin (Recombiplastin, Ortho) to initiate clotting, and clot formation monitored spectrophotometrically for 106 seconds. If a clot is not generated within 106 seconds, the MLA will automatically extend the observation time to 212 seconds.
An aPTT assay was performed using human plasma to determine the effect of γ′ peptide on the clotting time in this system. […] The MLA 1600 added SynthASil aPTT reagent (Ortho) to initiate clotting and clot formation was monitored spectrophotometrically for 106 seconds. […]
An aPTT assay was performed using human plasma to determine the effect of γ′ deletion peptides on the clotting time in this system. […] The MLA 1600 added SynthASil aPTT reagent (Ortho) to initiate clotting and clot formation was monitored spectrophotometrically for 106 seconds. […]

PEHPAETEY(*)DSLY(*)PEDDL (PEHPAETEYDSLYPEDDL; not fully specified (residues 9, 13); printed as PEHPAETEY(*)DSLY(*)PEDDL) [γ′ 410-427]
Platelet aggregation Slope, ADP ([1]; 0.125 mM peptide): 43
Platelet aggregation Extent, ADP ([1]; 0.125 mM peptide): 87%
Platelet aggregation Slope, ADP ([1]; 0.25 mM peptide): 40
Platelet aggregation Extent, ADP ([1]; 0.25 mM peptide): 86%
Platelet aggregation Slope, ADP ([1]; 0.5 mM peptide): 39
Platelet aggregation Extent, ADP ([1]; 0.5 mM peptide): 82%
Platelet aggregation Slope, ADP ([1]; 1.0 mM peptide): 32
Platelet aggregation Extent, ADP ([1]; 1.0 mM peptide): 58%
Platelet aggregation Slope, Epinephrine ([1]; 0.125 mM peptide): 22
Platelet aggregation Extent, Epinephrine ([1]; 0.125 mM peptide): 84%
Platelet aggregation Slope, Epinephrine ([1]; 0.25 mM peptide): 20
Platelet aggregation Extent, Epinephrine ([1]; 0.25 mM peptide): 82%
Platelet aggregation Slope, Epinephrine ([1]; 0.5 mM peptide): 16
Platelet aggregation Extent, Epinephrine ([1]; 0.5 mM peptide): 78%
Platelet aggregation Slope, Epinephrine ([1]; 1.0 mM peptide): 9
Platelet aggregation Extent, Epinephrine ([1]; 1.0 mM peptide): 43%
Platelet aggregation Slope, Arachidonic Acid ([1]; 0.125 mM peptide): 33
Platelet aggregation Extent, Arachidonic Acid ([1]; 0.125 mM peptide): 81%
Platelet aggregation Slope, Arachidonic Acid ([1]; 0.25 mM peptide): 35
Platelet aggregation Extent, Arachidonic Acid ([1]; 0.25 mM peptide): 82%
Platelet aggregation Slope, Arachidonic Acid ([1]; 0.5 mM peptide): 31
Platelet aggregation Extent, Arachidonic Acid ([1]; 0.5 mM peptide): 83%
Platelet aggregation Slope, Arachidonic Acid ([1]; 1.0 mM peptide): 34
Platelet aggregation Extent, Arachidonic Acid ([1]; 1.0 mM peptide): 85%
Platelet aggregation Extent, Thrombin ([1]; 0.125 mM peptide): 68%
Platelet aggregation Slope, Thrombin ([1]; 0.125 mM peptide): 70
Platelet aggregation Extent, Thrombin ([1]; 0.25 mM peptide): 64%
Platelet aggregation Slope, Thrombin ([1]; 0.25 mM peptide): 39
Platelet aggregation Extent, Thrombin ([1]; 0.5 mM peptide): 93%
Platelet aggregation Slope, Thrombin ([1]; 0.5 mM peptide): 21
Platelet aggregation Extent, Thrombin ([1]; 1.0 mM peptide): 33%
Platelet aggregation Slope, Thrombin ([1]; 1.0 mM peptide): 10
Blood clotting time, activated partial thromboplastin assay [2]: 55.1 ± 0.0 s
